This is an account of results in patent US20010014694A1, “Substituted phenyl compounds and derivatives thereof that modulate the activity of endothelin” (priority 1996, published 2001).

Where two headings read alike, the source gives them in different places. Some results are limits rather than exact numbers.

One data set concerns the target T1, human ETB receptor (Homo sapiens, UniProt P24530).
T1 construct: expressed in transfected cells; host or cells: COS7 cells, membrane preparation
T1 sequence (P24530 27-442): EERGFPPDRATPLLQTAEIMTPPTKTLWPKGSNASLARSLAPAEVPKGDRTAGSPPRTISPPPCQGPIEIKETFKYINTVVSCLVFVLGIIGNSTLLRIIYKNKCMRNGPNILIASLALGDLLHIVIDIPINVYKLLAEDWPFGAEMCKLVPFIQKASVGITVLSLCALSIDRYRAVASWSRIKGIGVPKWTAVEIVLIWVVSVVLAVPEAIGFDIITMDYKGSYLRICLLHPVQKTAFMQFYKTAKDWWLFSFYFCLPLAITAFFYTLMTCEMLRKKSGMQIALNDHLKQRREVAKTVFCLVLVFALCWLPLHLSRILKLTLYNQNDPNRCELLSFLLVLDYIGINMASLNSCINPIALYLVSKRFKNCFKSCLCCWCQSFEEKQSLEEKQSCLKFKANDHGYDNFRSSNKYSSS
Description: Binding Test #2: inhibition of 125I-labeled ET-1 binding to ETB receptors (transfected COS7 cell membranes). The following applies: ETB over ETA; preferably at least 3-fold greater affinity, more preferably 5-fold or more. From the text: Compounds that are potential endothelin antagonists are identified by testing their ability to compete with ^125I-labeled ET-1 for binding to human ETA receptors or ETB receptors present on isolated cell membranes. The effectiveness of the test compound as an antagonist or agonist of the biological tissue response of endothelin can also be assessed by measuring the effect on endothelin induced contraction of isolated rat thoracic aortic rings. The ability of the compounds to act as antagonists or agonists for ETB receptors can be assess by testing the ability of the compounds are to inhibit endothelin-1 induced prostacyclin release from cultured bovine aortic endothelial cells.
B. Endothelin Binding Inhibition—Binding Test #2: Inhibition of Binding to ETB Receptors
COS7 cells were transfected with DNA encoding the ETB receptor, The resulting cells, which express the human ETB receptor, were grown to confluence in T-150 flasks. Membrane was prepared as described above. The binding assay was performed as described above using the membrane preparation diluted with binding buffer to a concentration of 1 μg/50 μl.
Briefly, the COS7 cells, described above, that had been transfected with DNA encoding the ETB receptor and express the human ETB receptor on their surfaces were grown to confluence in T-175 flasks. Cells from multiple flasks were collected by scraping, pooled and centrifuged for 10 min at 190×g. The cells were resuspended in phosphate buffered saline (PBS) containing 10 mM EDTA using a Tenbroeck homogenizer. The suspension was centrifuged at 4° C. 57,800×g for 15 min, the pellet was resuspended in 5 ml of buffer A (5 mM HEPES buffer, pH 7.4 containing aprotinin (100 KIU/ml)) and then frozen and thawed once. Five ml of Buffer B (5 mM HEPES Buffer, pH 7.4 containing 10 mM MnCl2 and 0.001% deoxyribonuclease Type 1) was added, the suspension mixed by inversion and then incubated at 37° C. for 30 minutes. The mixture was centrifuged at 57,800×g as described above, the pellet washed twice with buffer A and then resuspended in buffer C (30 mM HEPES buffer, pH 7.4 containing aprotinin (100 KIU/ml) to give a final protein concentration of 2 mg/ml.
The binding assay was performed as described above using the membrane preparation diluted to give 1 μg/50 μl of binding buffer.

For data set [1], the system named is non-cardiovascular tissues, such as kidney, adrenal gland, and cerebellum (ETB receptors predominate). The following applies: cited from earlier work.
For data set [2], the system named is cardiovascular tissues (ETA receptors predominate). The following applies: cited from earlier work.
The test system of a further data set is isolated vascular strips. Conditions: read-out: EC50, contractile agent; cited from earlier work.
Another data set addresses ETA receptor. Conditions: read-out: IC50, inhibition of 125I-labelled endothelin-1 binding, cited from earlier work.
A further data set has as its target ETB receptors. Conditions: tissues in which ETB receptors predominate; read-out: fails to inhibit binding to receptors at concentrations up to; cited from earlier work.

Usually melting point stands for the temperature, or range, at which the solid turns liquid. `Cc1ccc(Oc2cccc(Oc3ccc(C)cc3)c2C(=O)O)cc1` [Example 8, 2,6-bis-(4-methylphenoxy)benzoic acid] gave a melting point of 205 to 206 °C. Further, the “ETB selective (interact with greater affinity with one receptor sub-type than with the other)” value on human ETB receptor is recorded as “ETB selective”.
In the case of “(Thr^2,Phe^4,Thr^5,Tyr^6,Lys^7,Tyr^14) endothelin-1 [endothelin-3]”, the “extent of inhibition of 125I-labelled endothelin-1 binding” value in data set [1] is “to the same extent”.
By EC50 is commonly meant the concentration needed to bring the measured effect to its halfway point. “endothelin-1: endothelium-derived potent twenty-one amino acid peptide vasoconstrictor, one of three endothelin isopeptides”: the “potency of inhibition of 125I-labelled endothelin-1 binding relative to endothelin-3” value in data set [2] is recorded as “forty to seven hundred times more potently”. Also, in the data set on isolated vascular strips, the EC50 was 0.4 nM. In data set [1], the “extent of inhibition of 125I-labelled endothelin-1 binding” value was “to the same extent”.
Turning to “cyclo(D-Glu-L-Ala-allo-D-Ile-L-Leu-D-Trp) [BE-18257B]”, the IC50 was 1400 nM on ETA receptor (aortic smooth muscle), 500 nM on ETA receptor (cultured aortic smooth muscle cells), 800 nM at ETA receptor (ventricle membranes) and greater than 100 µM on ETB receptors.
